# Data reported in patent US11739074B2, “Ras inhibitors” (Revolution Medicines, Inc., priority 2019, dated 2023).
# pEC50, pIC50: −log10 of the molar value. Where two headings read alike, the source gives them in different places.
# Legend:
# [1] = system: AsPC-1 (K-Ras G12D); assay: Potency assay: pERK in AsPC-1 cells; type: cell-based; details: Homo sapiens
# [2] = biological target: KRAS Q61H (Homo sapiens, UniProt P01116+P62937, Q61H); assay: Ras-Raf disruption/FRET/MOA assay, KRAS Q61H; type: biochemical
# Excerpt: (§1) Disruption of B-Raf Ras-Binding Domain (BRAF^RBD) Interaction with K-Ras by Compounds of the Invention (Also Called a FRET Assay or an MOA Assay)
# (§2) Note—The following protocol describes a procedure for monitoring disruption of K-Ras G12C (GMP-PNP) binding to BRAF^RBD by a compound of the invention. This protocol may also be executed substituting other Ras proteins or nucleotides, such as K-Ras G12D and K-Ras G13D.
# (§3) The purpose of this biochemical assay was to measure the ability of test compounds to facilitate ternary complex formation between a nucleotide-loaded K-Ras isoform and Cyclophilin A; the resulting ternary complex disrupts binding to a BRAF^RBD construct, inhibiting K-Ras signaling through a RAF effector.
# (§4) In assay buffer containing 25 mM HEPES pH 7.3, 0.002% Tween20, 0.1% BSA, 100 mM NaCl and 5 mM MgCl2, tagless Cyclophilin A, His6-K-Ras-GMPPNP, and GST-BRAF^RBD were combined in a 384-well assay plate at final concentrations of 25 μM, 12.5 nM, and 50 nM, respectively. Compound was present in plate wells as a 10-point 3-fold dilution series starting at a final concentration of 30 μM. After incubation at 25° C. for 3 hours, a mixture of anti-His Eu-W1024 and anti-GST allophycocyanin was then added to assay sample wells at final concentrations of 10 nM and 50 nM, respectively, and the reaction incubated for an additional 1.5 hours. […] Compounds that facilitate disruption of a K-Ras:RAF complex were identified as those eliciting a decrease in the TR-FRET ratio relative to DMSO control wells.
# [3] = system: AsPC-1 (K-Ras G12D); assay: CellTiter-Glo cell viability assay, AsPC-1; type: cell-based; details: Homo sapiens, ASPC1, 120 h
# Procedure, shortened: (§5)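 Luminescence from CellTiter-Glo serves as the viability read-out after cells are treated with compound for 5 days. Each well's signal is divided by the DMSO average and multiplied by 100, and curves are fitted by four-parameter logistic regression.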
# [4] = biological target: KRAS WT (Homo sapiens, UniProt P01116+P62937); assay: Ras-Raf disruption/FRET/MOA assay, KRAS WT; type: biochemical
# Procedure, shortened: (§6)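 Compounds promote a Cyclophilin A (25 μM) ternary complex with His6-KRAS-GMPPNP, which blocks binding of GST-BRAF^RBD (50 nM). Titration runs to a 30 μM top concentration, and loss of RAF binding is detected by TR-FRET.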
# [5] = biological target: T1, NRAS Q61K (Homo sapiens, UniProt P01111+P62937, Q61K); assay: Ras-Raf disruption/FRET/MOA assay, NRAS Q61K; type: biochemical
# T1 construct: His6
# Excerpt: as §1, §2, §3, §4
# [6] = biological target: KRAS G13D (Homo sapiens, UniProt P01116+P62937, G13D); assay: Ras-Raf disruption/FRET/MOA assay, KRAS G13D; type: biochemical
# Procedure, shortened: as §6
# [7] = biological target: T2, NRAS WT (Homo sapiens, UniProt P01111+P62937); assay: Ras-Raf disruption/FRET/MOA assay, NRAS WT; type: biochemical
# T2 construct: His6
# Excerpt: as §1, §2, §3, §4
# [8] = biological target: KRAS G12V (Homo sapiens, UniProt P01116+P62937, G12V); assay: Ras-Raf disruption/FRET/MOA assay, KRAS G12V; type: biochemical
# Procedure, shortened: as §6
# [9] = biological target: KRAS G12C (Homo sapiens, UniProt P01116+P62937, G12C); assay: Ras-Raf disruption/FRET/MOA assay, KRAS G12C; type: biochemical
# Procedure, shortened: as §6
# [10] = biological target: T3, NRAS Q61R (Homo sapiens, UniProt P01111+P62937, Q61R); assay: Ras-Raf disruption/FRET/MOA assay, NRAS Q61R; type: biochemical
# T3 construct: His6
# Excerpt: as §1, §2, §3, §4
# [11] = system: NCI-H358 (K-Ras G12C); assay: CellTiter-Glo cell viability assay, H358; type: cell-based; details: Homo sapiens, NCI-H358, 120 h
# Procedure, shortened: as §5
# [12] = biological target: KRAS G12S (Homo sapiens, UniProt P01116+P62937, G12S); assay: Ras-Raf disruption/FRET/MOA assay, KRAS G12S; type: biochemical
# Procedure, shortened: as §6
# [13] = biological target: KRAS G12D (Homo sapiens, UniProt P01116+P62937, G12D); assay: Ras-Raf disruption/FRET/MOA assay, KRAS G12D; type: biochemical
# Procedure, shortened: as §6
# [14] = biological target: KRAS G13C (Homo sapiens, UniProt P01116+P62937, G13C); assay: Ras-Raf disruption/FRET/MOA assay, KRAS G13C; type: biochemical
# Procedure, shortened: as §6
# [15] = biological target: T4, NRAS G12C (Homo sapiens, UniProt P01111+P62937, G12C); assay: Ras-Raf disruption/FRET/MOA assay, NRAS G12C; type: biochemical
# T4 construct: His6
# Procedure, shortened: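 Disruption of Ras:RAF binding was read as a drop in TR-FRET ratio versus DMSO controls. The buffer was 25 mM HEPES pH 7.3, 0.002% Tween20, 0.1% BSA, 100 mM NaCl and 5 mM MgCl2. Compounds were tested as a 10-point 3-fold dilution series from 30 μM. Detection used 10 nM anti-His Eu-W1024 and 50 nM anti-GST allophycocyanin.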
# [16] = ASPC1, AsPC-1 cells, K-Ras G12D, read-out: pERK EC50 (AsPC-1 KRAS G12D)
# [17] = KRAS Q61H, read-out: KRAS Q61H FRET data IC50
# [18] = AsPC-1, K-Ras G12D, 5-day treatment, read-out: AsPC-1 Cell Viability IC50
# [19] = disruption of BRAF RBD binding, with Cyclophilin A, read-out: KRAS WT FRET IC50
# [20] = NRAS Q61K, read-out: NRAS Q61K FRET data IC50
# [21] = disruption of BRAF RBD binding, with Cyclophilin A, read-out: KRAS G13D FRET IC50
# [22] = NRAS WT, read-out: NRAS WT FRET data IC50
# [23] = disruption of BRAF RBD binding, with Cyclophilin A, read-out: KRAS G12V FRET IC50
# [24] = disruption of BRAF RBD binding, with Cyclophilin A, read-out: KRAS G12C FRET IC50
# [25] = NRAS Q61R, read-out: NRAS Q61R FRET data IC50
# [26] = NCI-H358, K-Ras G12C, 5-day treatment, read-out: H358 Cell Viability IC50
# [27] = disruption of BRAF RBD binding, with Cyclophilin A, read-out: KRAS G12S FRET IC50
# [28] = disruption of BRAF RBD binding, with Cyclophilin A, read-out: KRAS G12D FRET IC50
# [29] = disruption of BRAF RBD binding, with Cyclophilin A, read-out: KRAS G13C FRET IC50
# [30] = NRAS G12C, read-out: NRAS G12C FRET data IC50
# KRAS G12C, sequence (P01116 1-169 isoform P01116-2 G12C limits assumed): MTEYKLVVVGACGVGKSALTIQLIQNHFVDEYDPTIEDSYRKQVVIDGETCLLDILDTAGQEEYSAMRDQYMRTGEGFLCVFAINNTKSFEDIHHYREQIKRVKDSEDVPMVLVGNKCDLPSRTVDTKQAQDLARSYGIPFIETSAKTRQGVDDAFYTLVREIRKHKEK
# KRAS G12C, sequence (P62937 whole entry): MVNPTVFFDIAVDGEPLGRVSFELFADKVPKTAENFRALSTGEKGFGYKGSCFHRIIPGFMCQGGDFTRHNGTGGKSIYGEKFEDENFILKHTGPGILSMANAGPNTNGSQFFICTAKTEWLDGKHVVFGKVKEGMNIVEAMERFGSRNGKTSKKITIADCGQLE
# KRAS G12V, sequence (P01116 1-169 isoform P01116-2 G12V limits assumed): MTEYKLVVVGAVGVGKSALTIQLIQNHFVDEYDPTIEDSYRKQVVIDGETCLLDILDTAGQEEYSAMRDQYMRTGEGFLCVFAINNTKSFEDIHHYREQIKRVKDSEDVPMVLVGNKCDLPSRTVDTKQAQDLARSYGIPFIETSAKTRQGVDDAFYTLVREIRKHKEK
# KRAS G12V, sequence (P62937 whole entry): as the sequence (P62937 whole entry) above
# T3 sequence (P01111 whole entry Q61R): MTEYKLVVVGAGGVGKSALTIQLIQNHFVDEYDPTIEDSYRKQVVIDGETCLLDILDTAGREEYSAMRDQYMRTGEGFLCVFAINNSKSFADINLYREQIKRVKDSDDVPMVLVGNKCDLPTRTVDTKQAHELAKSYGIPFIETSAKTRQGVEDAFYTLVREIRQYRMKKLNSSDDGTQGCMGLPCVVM
# T3 sequence (P62937 whole entry): as the sequence (P62937 whole entry) above
# T4 sequence (P01111 whole entry G12C): as the sequence (P01111 whole entry Q61R) above, with G12C, R61Q counted along it
# T4 sequence (P62937 whole entry): as the sequence (P62937 whole entry) above
# KRAS G12D, sequence (P01116 1-169 isoform P01116-2 G12D limits assumed): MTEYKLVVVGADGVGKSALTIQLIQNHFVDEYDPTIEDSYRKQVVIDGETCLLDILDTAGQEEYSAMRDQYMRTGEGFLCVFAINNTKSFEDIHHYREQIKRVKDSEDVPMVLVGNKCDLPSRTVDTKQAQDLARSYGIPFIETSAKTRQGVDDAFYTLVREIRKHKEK
# KRAS G12D, sequence (P62937 whole entry): as the sequence (P62937 whole entry) above
# KRAS Q61H, sequence (P01116 1-169 isoform P01116-2 Q61H limits assumed): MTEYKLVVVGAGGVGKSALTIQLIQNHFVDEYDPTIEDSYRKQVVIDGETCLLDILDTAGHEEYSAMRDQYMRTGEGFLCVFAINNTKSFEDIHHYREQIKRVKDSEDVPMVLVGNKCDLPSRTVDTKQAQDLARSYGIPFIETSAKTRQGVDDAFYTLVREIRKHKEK
# KRAS Q61H, sequence (P62937 whole entry, the tested form may be a part): as the sequence (P62937 whole entry) above
# KRAS G13D, sequence (P01116 1-169 isoform P01116-2 G13D limits assumed): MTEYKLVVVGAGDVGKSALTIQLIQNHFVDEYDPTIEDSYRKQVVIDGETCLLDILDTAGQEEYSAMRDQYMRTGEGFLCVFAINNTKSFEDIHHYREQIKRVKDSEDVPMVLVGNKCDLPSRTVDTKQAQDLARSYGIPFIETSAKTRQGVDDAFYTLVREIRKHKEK
# KRAS G13D, sequence (P62937 whole entry): as the sequence (P62937 whole entry) above
# T2 sequence (P01111 whole entry): as the sequence (P01111 whole entry Q61R) above, with R61Q counted along it
# T2 sequence (P62937 whole entry): as the sequence (P62937 whole entry) above
# KRAS G12S, sequence (P01116 1-169 isoform P01116-2 G12S limits assumed): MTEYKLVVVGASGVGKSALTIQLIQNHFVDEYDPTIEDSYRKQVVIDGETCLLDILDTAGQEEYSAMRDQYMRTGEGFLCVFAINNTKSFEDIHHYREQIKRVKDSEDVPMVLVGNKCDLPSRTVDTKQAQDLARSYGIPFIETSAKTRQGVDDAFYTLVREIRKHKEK
# KRAS G12S, sequence (P62937 whole entry): as the sequence (P62937 whole entry) above
# T1 sequence (P01111 whole entry Q61K): as the sequence (P01111 whole entry Q61R) above, with R61K counted along it
# T1 sequence (P62937 whole entry): as the sequence (P62937 whole entry) above
# KRAS G13C, sequence (P01116 1-169 isoform P01116-2 G13C limits assumed): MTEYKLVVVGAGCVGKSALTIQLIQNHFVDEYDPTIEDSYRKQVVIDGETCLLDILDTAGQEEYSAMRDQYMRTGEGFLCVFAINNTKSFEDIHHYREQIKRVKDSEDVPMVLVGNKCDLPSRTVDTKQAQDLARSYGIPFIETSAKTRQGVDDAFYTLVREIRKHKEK
# KRAS G13C, sequence (P62937 whole entry): as the sequence (P62937 whole entry) above
# KRAS WT, sequence (P01116 1-169 isoform P01116-2 limits assumed): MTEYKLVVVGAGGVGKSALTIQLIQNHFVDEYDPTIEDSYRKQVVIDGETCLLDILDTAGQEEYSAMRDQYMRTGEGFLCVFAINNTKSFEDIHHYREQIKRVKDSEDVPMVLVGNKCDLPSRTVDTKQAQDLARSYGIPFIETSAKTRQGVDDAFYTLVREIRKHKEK
# KRAS WT, sequence (P62937 whole entry): as the sequence (P62937 whole entry) above
SMILES,"pEC50 [1, 16]","pIC50 [2, 17]","pIC50 [3, 18]","pIC50 [4, 19]","pIC50 [5, 20]","pIC50 [6, 21]","pIC50 [7, 22]","pIC50 [8, 23]","pIC50 [9, 24]","pIC50 [10, 25]","pIC50 [11, 26]","pIC50 [12, 27]","pIC50 [13, 28]","pIC50 [14, 29]","pIC50 [15, 30]",other results
"CCn1c(-c2cccnc2[C@H](C)OC)c2c3cc(ccc31)-c1csc(n1)C[C@H](NC(=O)[C@H](C(C)C)N(C)C(=O)N1CCC[C@@H](N(C)C(=O)[C@H]3CN3)C1)C(=O)N1CCC[C@H](N1)C(=O)OCC(C)(C)C2 (atropisomer, axis not shown) [Compound 289]",> 5.30,7.00 to 8.00,6.00 to 7.00,7.00 to 8.00,7.00 to 8.00,6.00 to 7.00,7.00 to 8.00,6.00 to 7.00,7.00 to 8.00,7.00 to 8.00,7.00 to 8.00,7.00 to 8.00,6.00 to 7.00,6.00 to 7.00,7.00 to 8.00,
"CCn1c(-c2cccnc2[C@H](C)OC)c2c3cc(ccc31)-c1csc(n1)C[C@H](NC(=O)[C@H](C(C)C)N(C)C(=O)N1CCC[C@H](N(C)C(=O)[C@H]3CN3)C1)C(=O)N1CCC[C@H](N1)C(=O)OCC(C)(C)C2 (atropisomer, axis not shown) [Compound 290]",> 5.30,6.00 to 7.00,5.00 to 6.00,6.00 to 7.00,6.00 to 7.00,5.00 to 6.00,6.00 to 7.00,6.00 to 7.00,6.00 to 7.00,6.00 to 7.00,7.00 to 8.00,6.00 to 7.00,5.00 to 6.00,6.00 to 7.00,6.00 to 7.00,
"CCn1c(-c2cccnc2[C@H](C)OC)c2c3cc(ccc31)-c1csc(n1)C[C@H](NC(=O)[C@H](C(C)C)N(C)C(=O)N1CCC[C@@H](N(C)C(=O)[C@@H]3CN3)C1)C(=O)N1CCC[C@H](N1)C(=O)OCC(C)(C)C2 (atropisomer, axis not shown) [Compound 291]",> 5.30,7.00 to 8.00,6.00 to 7.00,7.00 to 8.00,7.00 to 8.00,6.00 to 7.00,7.00 to 8.00,6.00 to 7.00,7.00 to 8.00,6.00 to 7.00,7.00 to 8.00,6.00 to 7.00,6.00 to 7.00,6.00 to 7.00,7.00 to 8.00,
CCC(C)N(C)C(=O)c1cncc(-c2c3c4cc(ccc4n2CC)-c2cc(O)cc(c2)C[C@H](NC(=O)[C@H](C(C)C)N(C)C(=O)CN(C)C(=O)[C@H]2CN2)C(=O)N2CCC[C@H](N2)C(=O)OCC(C)(C)C3)c1 (stereo partly shown) [Compound 144],,,,,,,,,,,,,,,,"pEC50 ([1]; ASPC1, read-out: pERK EC50 (AsPC-1 KRAS G12D)): > 5.30; pIC50 [2]: 7.00 to 8.00; pIC50 ([3]; read-out: AsPC-1 Cell Viability IC50, AsPC-1, K-Ras G12D, 5-day treatment): 6.00 to 7.00; pIC50 [4]: 6.00 to 7.00; pIC50 [5]: 5.00 to 6.00; pIC50 [6]: 6.00 to 7.00; pIC50 [7]: 6.00 to 7.00; pIC50 [8]: 6.00 to 7.00; pIC50 [9]: 7.00 to 8.00; pIC50 [10]: 5.00 to 6.00; pIC50 ([11]; read-out: H358 Cell Viability IC50, NCI-H358, K-Ras G12C, 5-day treatment): 7.00 to 8.00; pIC50 [12]: 6.00 to 7.00; pIC50 [13]: 6.00 to 7.00; pIC50 [14]: 7.00 to 8.00; pIC50 ([15]; NRAS G12C FRET data IC50, NRAS G12C): 7.00 to 8.00"
CCn1c(-c2cccnc2[C@H](C)OC)c2c3cc(ccc31)-c1cc(O)cc(c1)C[C@H](NC(=O)[C@H](C(C)C)N1CO[C@]3(CCN(C(=O)[C@H]4CN4)C3)C1=O)C(=O)N1CCC[C@H](N1)C(=O)OCC(C)(C)C2 [Compound 231],> 5.30,> 8.00,6.00 to 7.00,7.00 to 8.00,7.00 to 8.00,7.00 to 8.00,7.00 to 8.00,7.00 to 8.00,> 8.00,6.00 to 7.00,> 8.00,7.00 to 8.00,7.00 to 8.00,> 8.00,> 8.00,
CCn1c(-c2cccnc2[C@H](C)OC)c2c3cc(ccc31)-c1csc(n1)C[C@H](NC(=O)[C@H](C1CCCC1)N1CC[C@]3(CCN(C(=O)[C@@H]4N[C@@H]4C4CC4)C3)C1=O)C(=O)N1CCC[C@H](N1)C(=O)OCC(C)(C)C2 [Compound 234],,5.00 to 6.00,6.00 to 7.00,5.00 to 6.00,5.00 to 6.00,< 5.00,5.00 to 6.00,5.00 to 6.00,6.00 to 7.00,5.00 to 6.00,7.00 to 8.00,5.00 to 6.00,5.00 to 6.00,5.00 to 6.00,5.00 to 6.00,
CCn1c(-c2cccnc2[C@H](C)OC)c2c3cc(ccc31)-c1csc(n1)C[C@H](NC(=O)[C@H](C(C)C)N(C)C(=O)N1C3CCC1CN(C(=O)[C@H]1CN1)C3)C(=O)N1CCC[C@H](N1)C(=O)OCC(C)(C)C2 [Compound 303],> 5.30,7.00 to 8.00,6.00 to 7.00,6.00 to 7.00,6.00 to 7.00,6.00 to 7.00,6.00 to 7.00,6.00 to 7.00,6.00 to 7.00,6.00 to 7.00,7.00 to 8.00,6.00 to 7.00,6.00 to 7.00,6.00 to 7.00,6.00 to 7.00,
CCn1c(-c2cccnc2[C@H](C)OC)c2c3cc(ccc31)-c1cc(cc(C(F)F)c1)C[C@H](NC(=O)[C@H](C1CCCC1)N1CC[C@]3(CCN(C(=O)[C@@H]4N[C@@H]4C4CC4)C3)C1=O)C(=O)N1CCC[C@H](N1)C(=O)OCC(C)(C)C2 [Compound 318],,6.00 to 7.00,6.00 to 7.00,6.00 to 7.00,5.00 to 6.00,5.00 to 6.00,5.00 to 6.00,5.00 to 6.00,6.00 to 7.00,5.00 to 6.00,6.00 to 7.00,5.00 to 6.00,5.00 to 6.00,6.00 to 7.00,5.00 to 6.00,
